Reference: patent US20230312571A1, “RING-MODIFIED PROLINE SHORT PEPTIDE COMPOUND AND USE THEREOF” (priority 2021, published 2023)
Read-outs that look alike come from different tables or passages of the source.

Columns and labels:
coronavirus HCoV OC43 = assay: In vitro anti-coronavirus activity by cytopathic model (CPE, CellTiter Glo); assay type: cell-based; settings: HCoV OC43 100 TCID50/well, MRC5 cells, 5 days
Description: MRC5 cells and coronavirus HCoV OC43 were purchased from ATCC.
MRC5 cells were cultured in MEM (Sigma) medium supplemented with 10% fetal bovine serum (Excell), 1% double antibody (Hyclone), 1%L-glutamine (Gibco) and 1% non-essential amino acids (Gibco). MEM (Sigma) medium supplemented with 5% fetal bovine serum (Excell), 1% double antibody (Hyclone), 1% L-glutamine (Gibco) and 1% non-essential amino acid (Gibco) was used as the experimental culture medium.
Cells were inoculated into a 96 microwell plate at a certain density (Table 6) and cultured overnight in an incubator at 5% CO2 and 37° C. On the second day, the compound was added after doubling dilution (8 concentration points, duplicate wells), with 50 µL per well. Then the diluted virus was added to the cells at 100 TCID50 per well, 50 µL per well. Cell control (cell without compound treatment or virus infection), virus control (cell infected with virus without compound treatment) and culture medium control (only culture medium) were set. The final volume of the culture medium in this experiment was 200 µL, and the final concentration of DMSO in the culture medium was 0.5%. Cells were cultured in a 5% CO2, 33° C. incubator for 5 days. Cell viability was detected using the cell viability assay kit CellTiter Glo (Promega). Cytotoxicity experiments were performed under the same conditions as antiviral experiments, but without virus infection.
The antiviral activity and cytotoxicity of the compound were represented by the inhibition rate (%) and cell viability (%) of the compound on the cytopathic effect caused by the virus at different concentrations, respectively. The calculation formula is as follows: […]
GraphPad Prism was used to perform nonlinear fitting analysis on the inhibition rate and cell viability of the compound, and the half effective concentration (EC50) and half cytotoxic concentration (CC50) of the compound were calculated.

[1] = tested on: SARS-CoV-2 virus (Novel coronavirus βCoV/KOR/KCDC03/2020 strain); assay: Anti-novel coronavirus activity in Vero cells (immunofluorescence, high-content imaging); assay type: cell-based; settings: Severe acute respiratory syndrome coronavirus 2, wild-type novel coronavirus, MOI=0.0125, 24 hours
SARS-CoV-2 Mpro = SARS-CoV-2 Mpro (Severe acute respiratory syndrome coronavirus 2 (2019-nCoV) (SARS-CoV-2), UniProt P0DTD1); assay: In vitro anti-novel coronavirus Mpro protease activity (fluorescent substrate cleavage); assay type: biochemical
Description: The compound was dissolved in DMSO, and diluted in a 3-fold gradient with Echo655 according to the concentration requirements to 10 concentration points, and duplicate tests were set at each concentration, and the diluted solution was added to a 384-well plate. Mpro protein and substrate were diluted with test buffer (100 mM NaCl, 20 mM Tris-HCl, 1 mM EDTA), and Mpro protein was added to the 384-well test plate, incubated with the compound for 30 min at room temperature, and then the substrate was added thereto, and the test concentration of Mpro protein was 25 nM, and the test concentration of substrate was 25 µM. After incubating for 60 minutes in a 30° C. constant temperature incubator, the fluorescence signal value of Ex/Em=340 nm/490 nm was detected by microplate reader. At the same time, the background well containing the substrate and compound but not containing Mpro protein was detected as control.

[2] = Cytotoxicity in the cytopathic model, without virus infection (CellTiter Glo); settings: human
in vitro = settings: African green monkey
Vero cells = settings: 24 hours
[3] = parameters: species or system C57BL/6J male mice; settings: mouse, in vivo, po, 10 mg/kg
Description: In this study, C57BL/6J male mice were selected as test animals, and the LC/MS/MS method was used to quantitatively measure the plasma concentrations of mice in combination with Ritonavir at different time points, so as to evaluate the pharmacokinetic characteristics of the test drug in mice.
Firstly, 10 mpk of Ritonavir was administered to mice by intragastric administration at -12 h and 0 h, and then the test compound was dissolved in 30% PEG400+70% normal saline solution and administered to mice by intragastric administration (overnight fasting, 6 to 8 weeks old). 25 µL of blood was collected at 0.083, 0.25, 0.5, 1, 2, 4, 8, 12 and 24 hours after administration to animals, placed in a commercial anticoagulant tube pre-added with EDTA-K2, and centrifuged at 4° C., 3200 g for 10 min to obtain plasma. After the plasma samples were treated, the plasma concentration was determined by LC-MS/MS method.

[4] = Tissue distribution test in rats (plasma and lung, with Ritonavir); assay type: in vivo, SD male rats; settings: 30 mpk p.o. with Ritonavir 10 mpk
Description: In this study, SD male rats were selected as test animals, and the drug concentrations of test compounds in plasma and lungs of rats at different time points were quantitatively measured by LC/MS/MS method to evaluate the pharmacokinetic characteristics of test drugs in rats.
Firstly, 10 mpk of Ritonavir was administered to rats by intragastric administration at -12 h and 0 h, and 30 mpk of the test compound was dissolved in 10% Solutol + 30% PEG 400 + 2% Tween 80+H2O 58% solution and administered to rats by intragastric administration (overnight fasting). 40 µL of blood was collected from the saphenous vein of rats at 0.25, 1 and 6 hours after administration, placed in an anticoagulant tube added with EDTA-K2, centrifuged at 4° C., 3200 g for 10 min to obtain plasma, and some animals were killed at 0.25, 1 and 6 hours respectively to collect lung tissue. After the plasma samples were treated, the plasma concentration was determined by LC-MS/MS method.

[5] = parameters: species or system C57BL/6J male mice; settings: mouse, in vivo
Description: In this study, C57BL/6J male mice were selected as test animals, and LC/MS/MS method was used to quantitatively measure the plasma concentration of the test compound 11 at different time points after oral administration and injection in mice, so as to evaluate the pharmacokinetic characteristics of the test drug in mice.
The test compound dissolved in 30% PEG400+70% normal saline was administered to mice (overnight fasting, 6-8 weeks old) by intragastric administration. 25 µL of blood was collected at 0.083, 0.25, 0.5, 1, 2, 4, 8, 12 and 24 hours after administration, respectively, and placed in commercial anticoagulation tubes pre-added with EDTA-K2, centrifuged at 4° C., 3200 g for 10 min to obtain plasma, and after the plasma sample was treated, the plasma concentration was determined by LC-MS/MS method.

[6] = 25 nM Mpro protein, 25 µM substrate, read-out: IC50

N#C[C@H](C[C@@H]1CCNC1=O)NC(=O)[C@@H]1[C@H]2CC[C@H](C2)N1C(=O)[C@@H](NC(=O)C(F)(F)F)C12CC3CC(CC(C3)C1)C2 [Compound 3]
EC50 (coronavirus HCoV OC43; Betacoronavirus 1, 120 h): 62 nM | EC50 [1]: 35 nM | IC50 (SARS-CoV-2 Mpro): 21 nM | CC50 at 5 days [2]: > 10000 nM | CC50 (in vitro): > 5000 nM

CC(C)(C)[C@H](NC(=O)C(F)(F)F)C(=O)N1[C@H]2C[C@@H]([C@H]1C(=O)N[C@H](C#N)C[C@@H]1CCNC1=O)C1(CC1)C2 [Compound 11]
EC50 (coronavirus HCoV OC43): 3.5 nM | IC50 (SARS-CoV-2 Mpro; [6]): 5.4 nM | CC50 (Vero cells): > 5000 nM | AUC0-last [3]: 28.683 µM·h | Cmax [3]: 10.1 µM | Tmax [3]: 30 min | CC50 (MRC5 cells): > 10000 nM | Ratio lung/plasma of AUC(0-6 h) [4]: 2.6/1 | Ratio lung/plasma ([4]; 0.25 h): 5.5/1 | Ratio lung/plasma ([4]; 1 h): 3.2/1 | Ratio lung/plasma ([4]; 6 h): 1.6/1 | AUC0-last ([5]; iv, 3 mg/kg): 1.447 µM·h | CL ([5]; iv, 3 mg/kg): 68.5 mL/min/kg | T½ ([5]; iv, 3 mg/kg): 12 min | Vdss ([5]; iv, 3 mg/kg): 0.9 L/kg | AUC0-last ([5]; po, 10 mg/kg): 1.519 µM·h | Cmax ([5]; po, 10 mg/kg): 1.85 µM | Tmax ([5]; po, 10 mg/kg): 15 min

CC(C)(C)[C@H](NC(=O)C(F)(F)F)C(=O)N1[C@H]2C[C@@H]([C@H]1C(=O)N[C@H](C#N)C[C@@H]1CCNC1=O)C(F)(F)C2 [Compound 6]
IC50 (SARS-CoV-2 Mpro): 135 nM

N#C[C@H](C[C@@H]1CCNC1=O)NC(=O)[C@@H]1[C@H]2CC[C@H](C2)N1C(=O)[C@@H](NC(=O)C(F)(F)F)C12CCC(CC1)CC2 [Compound 4]
EC50 (coronavirus HCoV OC43; Betacoronavirus 1, 120 h): 141 nM | EC50 [1]: 30 nM | IC50 (SARS-CoV-2 Mpro): 53 nM | CC50 at 5 days [2]: > 10000 nM | CC50 (in vitro): > 5000 nM

CC(C)(C)[C@H](NC(=O)C(F)(F)F)C(=O)N1[C@H]2C[C@@H]([C@H]1C(=O)N[C@H](C#N)C[C@@H]1CCNC1=O)C(F)(F)C2 [Compound 10]
IC50 (SARS-CoV-2 Mpro; [6]): 17 nM

CC1C[C@H]2C[C@@H]1N(C(=O)[C@@H](NC(=O)C(F)(F)F)C(C)(C)C)[C@@H]2C(=O)N[C@H](C#N)C[C@@H]1CCNC1=O (stereo partly shown) [Compound 5]
EC50 (coronavirus HCoV OC43; Betacoronavirus 1, 120 h): 205 nM | EC50 [1]: 20 nM | CC50 at 5 days [2]: > 10000 nM | CC50 (in vitro): > 5000 nM

Cc1ccc(CC(=O)N[C@H](C(=O)N2[C@@H]3CC[C@@H](C3)[C@H]2C(=O)N[C@H](C#N)C[C@@H]2CCNC2=O)C23CC4CC(CC(C4)C2)C3)cc1 [Compound 13]
IC50 (SARS-CoV-2 Mpro; [6]): 75 nM

CC1([C@H](NC(=O)C(F)(F)F)C(=O)N2[C@@H]3CC[C@@H](C3)[C@H]2C(=O)N[C@H](C#N)C[C@@H]2CCNC2=O)CCCCC1 [Compound 7]
IC50 (SARS-CoV-2 Mpro): 62 nM

CC1C[C@@H]2C[C@H]1[C@@H](C(=O)N[C@H](C#N)C[C@@H]1CCNC1=O)N2C(=O)[C@@H](NC(=O)C(F)(F)F)C12CC3CC(CC(C3)C1)C2 (stereo partly shown) [Compound 12]
IC50 (SARS-CoV-2 Mpro; [6]): 17 nM
